These results are taken from publication PMC7792806, “Development of Second Generation Activity-Based Chemical Probes for Sirtuins” (Molecules, 2020).

Assay [1] addresses T1, SIRT5 (Homo sapiens, UniProt Q9NXA8).
T1 construct: SIRT5 (34-302); made in house
T1 sequence (Q9NXA8 34-302): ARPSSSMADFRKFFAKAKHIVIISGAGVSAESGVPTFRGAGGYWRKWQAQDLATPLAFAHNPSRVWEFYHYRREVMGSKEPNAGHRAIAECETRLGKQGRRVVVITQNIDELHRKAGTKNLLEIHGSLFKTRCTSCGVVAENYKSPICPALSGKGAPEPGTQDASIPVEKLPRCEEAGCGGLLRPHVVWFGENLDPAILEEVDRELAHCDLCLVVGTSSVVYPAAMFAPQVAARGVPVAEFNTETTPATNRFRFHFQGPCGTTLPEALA
Put plainly: Labeling of SIRT5 in partially purified recombinant sirtuin mixture and peptide competition. Format: biochemical. The note with it: 500 μM NAD+, increasing concentrations of probe, 20 min irradiation. The source says:
Probe 2B, being a selective SIRT5 inhibitor, was also selective for SIRT5 in the labeling experiments. […] The on-target effect of probe 2B was further confirmed by the peptide competition analysis. H3K9Suc (Figure 4B), a synthetic peptide that is identical to the N-terminus of histone H3 bearing a succinylated lysine 9 mark, is a known SIRT5 substrate. H3K9Suc was titrated into SIRT5 in the presence of probe 2B.
Figure 4 Labeling of SIRT5 by probe 2B. (A) Dose-dependent labeling of SIRT5 by probe 2B in recombinantly expressed, partially purified sirtuin mixture. SIRT1, SIRT2, SIRT3, SIRT5, and SIRT6 were mixed and incubated with 500 μM NAD^+ and increasing concentrations of 2B. The samples were incubated at 37 °C for 10 min and subjected to UV irradiation for 20 min, and then “click” conjugated to TAMRA-azide; (B) Chemical structure of H3K9Suc; (C) Peptide competition. The labeling of SIRT5 by probe 2B decreased with increasing concentrations of the competitor peptide, H3K9Suc.
A typical labeling experiment was performed as follows: in a 0.7 mL Eppendorf tube, purified recombinant human sirtuin (10 μM) was incubated with NAD^+ (500 μM) and activity-based probe at 37 °C for 10 min. […] Then, destained gel was analyzed with in-gel fluorescence scanning using a Biorad ChemiDoc MP imager (excitation 532 nm, 580 nm cut-off filter and 30 nm band-pass). […]

In assay [2] the target is T2, SIRT5 (Homo sapiens, UniProt Q9NXA8).
T2 construct: endogenous in cells; host or cells: HEK293
T2 sequence (Q9NXA8 37-310): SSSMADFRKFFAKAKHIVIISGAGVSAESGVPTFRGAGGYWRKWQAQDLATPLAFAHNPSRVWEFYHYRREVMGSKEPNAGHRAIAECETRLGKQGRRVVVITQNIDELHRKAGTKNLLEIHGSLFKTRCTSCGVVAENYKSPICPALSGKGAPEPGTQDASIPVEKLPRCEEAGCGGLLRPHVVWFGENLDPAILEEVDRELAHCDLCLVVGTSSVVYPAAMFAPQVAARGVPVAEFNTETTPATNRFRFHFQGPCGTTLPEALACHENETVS
Put plainly: Western blot of CPS1Ac in HEK293 cells. The assay is classed as cell-based. On the procedure:
The cellular activity of probes 2A and 2B was also investigated. […] SIRT5 is known to deacetylate and activate carbamoyl phosphate synthetase I (CPS1), which is the enzyme catalyzing the first step of the urea cycle. Cells were treated with either probe 2B or a known SIRT5 inhibitor, suramin, before the acetylation level of CPS1 (CPS1Ac) was examined.
(§1) The cell lysate was resolved on a 10% SDS-PAGE gel and transferred to Immobilon PVDF transfer membrane (Millipore, Burlington, MA, USA). The blot was blocked with 5% nonfat milk, probed with primary antibody targeting H3K9Ac (Sigma-Aldrich, St. Louis, MO, USA), H3 (Abcam, Cambridge, MA, USA), acetyllysine or CPS1 (Cell Signaling Technology, Beverly, MA, USA), washed with PBST, followed by incubation with anti-rabbit or anti-mouse HRP conjugated secondary antibody. Then, the signal was detected by SuperSignal West Pico Chemiluminescent substrate (Thermo Fisher Scientific, Rockford, IL, USA).

In a further assay the target is SIRT6H133Y (Homo sapiens, UniProt Q8N6T7, H133Y). Put plainly: Labeling of catalytically inactive mutant SIRT6H133Y. The assay is classed as biochemical. As for the experimental part: (§2) Remarkably, probe 2C was also able to label individual sirtuin isoforms in cell lysates. HEK293 cells overexpressing human SIRT2 were lysed, and the lysate was subjected to the labeling by 10 μM probe 2C.
(§3) A typical labeling experiment was performed as follows: in a 0.7 mL Eppendorf tube, purified recombinant human sirtuin (10 μM) was incubated with NAD^+ (500 μM) and activity-based probe at 37 °C for 10 min. The sample was transferred to a clear-bottom 96-well plate, placed on ice, and irradiated at 365 nm with a UV-lamp in a cold room. Subsequently, ingredients of the “click-chemistry” including azide-fluor 545, CuSO4, reducing agent (tris(2-carboxyethyl)phosphine, TCEP) and stabilizing agent (tris[(1-benzyl-1H-1,2,3-triazol-4-yl)methyl]amine, TBTA) were added, and the sample was gently agitated at 250 rpm on a microshaker at room temperature for 30 min. Then, the sample was resolved by SDS-PAGE. To […] the signal to noise ratio, the gel was destained to eliminate non-specific binding of free dyes. This was done in a mixture of methanol/distilled water/acetic acid (v/v/v = 4/5/1) at ambient temperature for 4 h. Then, destained gel was analyzed with in-gel fluorescence scanning using a Biorad ChemiDoc MP imager (excitation 532 nm, 580 nm cut-off filter and 30 nm band-pass). Finally, Coomassie blue staining was applied to provide loading control.

The target in assay [3] is T3, wild-type SIRT6 (wtSIRT6) (Homo sapiens, UniProt Q8N6T7).
T3 construct: host or cells: E. coli (inferred from b12)
Put plainly: Labeling of wild-type SIRT6. The assay is classed as biochemical. On the procedure:
as §2, §3

Another assay has as its target SIRT6 (Homo sapiens, UniProt Q8N6T7). Description: Western blot of H3K9Ac in HEK293 cells. The assay is classed as cell-based.
From the text: The ABPs structurally mimic acylated lysine substrates. However, the presence of substituents could potentially alter their cell permeability, cellular distribution, and target engagement ability. It is essential to determine if these probes are cell permeable and capable of inhibiting endogenous sirtuin activity. The sirtuin family of proteins are often referred to as the class III histone deacetylases (HDACs). Unlike class I and class II HDACs, which are Zn^2+-dependent, sirtuins are NAD^+-dependent. […] Similarly, other sirtuins may not be the only deacetylase of their endogenous substrates. Therefore, the inhibitory effect of the other ABPs may only become apparent when class I/II HADCs are inhibited at the same time. HEK293 cells were cultured in the presence of probe 2C and/or other HDAC inhibitors. Subsequently, the cell lysates were collected and probed for acetylated H3K9 (H3K9Ac), which is an endogenous substrate of SIRT6.
as §1
For orientation: Immunoblotting shows a protein as a band on a membrane.

SIRT6, sequence (Q8N6T7 whole entry): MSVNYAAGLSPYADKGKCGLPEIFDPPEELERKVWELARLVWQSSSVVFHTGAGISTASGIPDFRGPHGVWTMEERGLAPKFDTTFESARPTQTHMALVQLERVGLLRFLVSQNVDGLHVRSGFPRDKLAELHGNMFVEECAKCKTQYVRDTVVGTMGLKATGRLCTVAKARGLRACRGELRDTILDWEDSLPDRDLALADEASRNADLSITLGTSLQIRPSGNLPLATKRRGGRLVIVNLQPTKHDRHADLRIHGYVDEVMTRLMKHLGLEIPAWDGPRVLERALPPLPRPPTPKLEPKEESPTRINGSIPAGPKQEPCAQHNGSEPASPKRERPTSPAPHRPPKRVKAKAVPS
SIRT6H133Y, sequence (Q8N6T7 whole entry H133Y, canonical isoform): as the sequence (Q8N6T7 whole entry) above, with H133Y counted along it
T3 sequence (Q8N6T7 whole entry): as the sequence (Q8N6T7 whole entry) above

For `C#CCCCC1(CCC(=O)N[C@@H](CCCCNC(=S)CCC(=O)O)C(=O)N[C@@H](C)C(=O)N[C@@H](C)C(=O)OC)N=N1` [Probe 2B], the “labeling of SIRT5 in sirtuin mixture” value at SIRT5 [1] was “robust labeling of SIRT5 in a concentration-dependent fashion”. The “CPS1Ac level compared to control” value on SIRT5 [2] is on record as “increased CPS1Ac level”.

For the compound `C#CCCCC1(CCC(=O)N[C@@H](CCCCNC(=S)CCCCCCCCCCCCC)C(=O)N[C@@H](C)C(=O)N[C@@H](C)C(=O)OC)N=N1` [Probe 2C], the “labeling of SIRT6H133Y” value at SIRT6H133Y is on record as “failed to label”. Moreover, the “labeling of wtSIRT6” value in assay [3] was “concentration-dependent labeling of wild-type SIRT6”. Moreover, the “H3K9Ac level, combination with TSA” value at SIRT6 (combined with TSA) is on record as “significantly elevated level of H3K9Ac”. In addition, the “H3K9Ac level, treatment alone” value at SIRT6 (single agent) is recorded as “did not cause any appreciable changes”.
